Measurements reported in patent US20130261066A1, “TREATMENT OF INFLAMMATORY BOWEL DISEASES USING A TRIPEPTIDE” (THE RESEARCH FOUNDATION OF STATE UNIVERSITY OF NEW YORK, priority 2010, published 2013).

Legend:
[1] = tested on: NF-κB in NCM 460 cells (normal colon epithelial cells); test: NF-κB DNA binding activity (EMSA) in DSS-treated NCM460 cells; type: cell-based
[2] = tested on: DSS-induced colitis; test: DSS-induced colitis in mice, MC-12 5 or 25 mg/kg ip or po (Example 4); type: in vivo; details: for reduction of histological score compared to DSS control: p<0.01
Procedure: (§1) Female C57BL/6 and SJL/J mice (Taconic, Hudson, N.Y.), 7-9 weeks old, were kept under controlled temperature (25° C.) with a 12/12-hour light-dark cycle and free access to standard diet and drinking water. The mice were allowed to acclimate for 7 days before the start of experiments.
The mice received 2% dextran sulfate sodium (DSS, MW 36,000 to 50,000, MP Biomedicals, Solon, Ohio) in drinking water for 8 days; control mice received regular drinking water. During the period when DSS was administered, treated mice were given MC-12 at 5 or 25 mg/kg intraperitoneally (ip) whereas the control group was given saline ip. As above, the mice were weighed and monitored for rectal bleeding or prolapse daily. All mice were euthanized at the end of the study period. Blood samples were collected and colons were dissected and their length was measured. The middle part of colon was fixed in 4% neutralized formalin and the rest was frozen for molecular analyses. Paraffin-embedded tissue sections were stained and scored as above.
The fixed colon was cut into six equal fragments, dehydrated and embedded into paraffin. The tissue sections were stained with hematoxylin and eosin (H&E). The histological score was determined by two pathologists as described, based on the degree (0-3) and extent (0-3) of inflammation, crypt damage (0-4) and the area involved (0-4). The scores of each of the first three parameters were multiplied by the fourth and the sum of these three multiples was the final score (ranging from 0 to 40).

[3] = tested on: DSS-induced colitis; test: DSS-induced colitis in mice, MC12 40 or 80 μg/mouse ip (Example 1); type: in vivo
Procedure: as §1
The mice received 2% dextran sulfate sodium (DSS, MW 36,000 to 50,000, MP Biomedicals, Solon, Ohio) in drinking water for 7 days; control mice received regular drinking water. During the period when DSS was administered, treated mice were given MC12 40 or 80 μg/mouse intraperitoneally (i.p.) whereas the control group was given saline i.p. The mice were weighed and monitored for rectal bleeding or prolapse daily. All mice were euthanized at the end of the study. Blood samples were collected and colons were dissected and their length was measured. The middle part of colon was fixed in 4% neutralized formalin and the rest was frozen for molecular analyses.
Paraffin-embedded tissue sections were stained with hematoxylin and eosin (H&E). In these sections, the histological score was determined based on epithelial denudation, loss of crypts, ulceration, edema and leukocyte infiltration using criteria that have been described previously (see Perretti, F. et al., 2009, Nat Rev Immunol 9:62-70)

[4] = tested on: cytosolic phospholipase A2 (cPLA2); test: cPLA2 activity in colon tissue of DSS-treated mice; type: in vivo
Description: cPLA2 enzymes release fatty acids from the second carbon group of glycerol. This particular phospholipase specifically recognizes the sn-2 acyl bond of phospholipids and catalytically hydrolyzes the bond releasing a lysopospholipid and arachidonic acid; the latter is then modified by cyclooxygenases into active compounds called eicosanoids by cyclooxygenases. Eicosanoids include prostaglandins and leukotrienes which are categorized as inflammatory mediators. […] Treatment with MC12 decreased cPLA2 activity by 18% at 40 μg and 26% at the dose of 80 μg (p<0.05).
We also determined the activity of cytosolic phospholipase A2 (cPLA2) in colonic tissues from study mice. cPLA2s are enzymes that release fatty acids from the second carbon group of glycerol. This particular […] specifically recognizes the sn-2 acyl bond of phospholipids and catalytically hydrolyzes the bond releasing arachidonic acid and lysophospholipids, which are then modified into active compounds called eicosanoids by cyclooxygenases. Eicosanoids include prostaglandins and leukotrienes which are categorized as inflammatory mediators.
A cPLA2 assay kit (Cayman, Ann Arbor, Mich.) was used to determine cPLA2 activity following the instructions of the manufacturer. Briefly, a portion of colon tissue was homogenized in cold PBS and centrifuged at 10,000×g for 15 minutes and 10 μl of supernatant from each sample and 5 μl assay buffer were added into a 96-well microplate. The reaction was initialized by adding 200 μl substrate solutions to all wells and incubating for 5 min at room temperature. The fluorescence intensity was measured using a Multiplate Reader (Molecular Devices) at excitation at 485 nm, emission at 530 nm.

[5] = tested on: TNF-α; test: Colon cytokine mRNA by real-time PCR, DSS mice; type: in vivo; details: MC-12 at either dose (5 or 25 mg/kg)
Procedure: (§2) Expression of inflammatory cytokines TNF-α, IFN-γ, IL-1β, IL-6 and IL-10 in the colon was determined by measuring corresponding mRNA levels using real-time PCR. About 100 mg colon tissue were placed in 1 ml of cold Trizol (Invitrogen Life Technologies, Carlsbad, Calif.), immediately homogenized with a rotor power homogenizer, and RNA was extracted according to the manufacturer's instructions. Total RNA was retrotranscribed with M-MLV reverse transcriptase (Invitrogen Life Technologies, Carlsbad, Calif.) using random primers. Real-time quantitative PCR was performed in a CFD-3200 Opticon detector (BioRad, Hercules, Calif., USA) using QuantiTect SYBR Green PCR Kits (Qiagen, Valencia Calif., USA). The PCR cycling conditions were: 40 cycles of 60 seconds at 94° C., 30 seconds at 51.4° C. and 30 seconds at 72° C. PCR primers (forward and reverse primers) were designed based on published sequences: TNF-α: AGGCTGCCCCGACTACGT (SEQ ID NO:12) and […] (SEQ ID NO:13); IFN-γ: CAGCAACAGCAAGGCGAAA (SEQ ID NO:14) and CTGGACCT GTGGGTTGTTGAC (SEQ ID NO:15); IL-1β: […] (SEQ ID NO:16) and […] (SEQ ID NO:17); IL-6: […] (SEQ ID NO:18) and […] (SEQ ID NO:19); […]: […] (SEQ ID NO:20) and […] (SEQ ID NO:21); β-actin: […] (SEQ ID NO:20) and […] (SEQ ID NO:21). Relative expression levels of mRNA were normalized to β-actin.

[6] = tested on: IFN-γ; test: Colon cytokine mRNA by real-time PCR, DSS mice; type: in vivo; details: MC-12 at either dose (5 or 25 mg/kg)
Procedure: as §2

[7] = tested on: IL-10; test: Colon cytokine mRNA by real-time PCR, DSS mice; type: in vivo; details: MC-12 at either dose (5 or 25 mg/kg)
Procedure: as §2

[8] = tested on: IL-6; test: Colon cytokine mRNA by real-time PCR, DSS mice; type: in vivo; details: MC-12 at either dose (5 or 25 mg/kg)
Procedure: as §2

[9] = tested on: IL-1β; test: Colon cytokine mRNA by real-time PCR, DSS mice; type: in vivo; details: MC-12 at either dose (5 or 25 mg/kg)
Procedure: as §2

[10] = 2% DSS, MC12 40 or 80 μg/mouse ip

Gln-Ala-Trp (QAW) [MC12]
DSS-induced NF-κB-DNA binding activity (NF-κB activation) ([1]; 30 μM, listed as MC 12): significantly blocked this effect
DSS-induced NF-κB-DNA binding activity (NF-κB activation) ([1]; 30 μM, listed as MC-12): essentially eliminated NF-κB activation
DSS-induced NF-κB-DNA binding activity (NF-κB activation) ([1]; 300 μM, listed as MC 12): significantly blocked this effect
DSS-induced NF-κB-DNA binding activity (NF-κB activation) ([1]; 300 μM, listed as MC-12): essentially eliminated NF-κB activation
reduction of histological score compared to DSS control ([2]; 5 mg/kg ip): 48.9%
DSS-induced colonic inflammation (H&E histology) ([2]; 25 mg/kg ip): significantly decreased DSS-induced colonic inflammation
reduction of histological score compared to DSS control ([2]; 25 mg/kg ip): 66.8%
weight loss ([2]; 2% DSS 8 days, MC-12 5 or 25 mg/kg): prevented such weight loss in a dose-dependent manner
colon length (DSS-induced reduction) ([2]; 2% DSS 8 days, MC-12 5 or 25 mg/kg, ip and po): prevented this reduction in colon length in a dose-dependent manner
prevention of weight loss, ip compared to po ([2]; 2% DSS 8 days, ip vs po): more effective in preventing weight loss when given ip compared to po
DSS-induced colonic inflammation (H&E histology) ([3]; 40 μg per mouse ip): significantly decreased DSS-induced colonic inflammation
DSS-induced colonic inflammation (H&E histology) ([3]; 80 μg per mouse ip): also decreased DSS-induced colonic inflammation
weight loss ([3]; 2% DSS 7 days, MC12 40 or 80 μg/mouse ip): dose-dependent reduction in weight loss
colon length (DSS-induced reduction) [3, 10]: prevented this reduction in colon length in a dose-dependent manner
histological colitis score [3, 10]: reduced the histological colitis score dose-dependently
change in body weight ([3]; 2% DSS, higher dose 80 μg/day ip, day 7): essentially no change in their weight
histological colitis score, significance of reduction ([3]; higher MC12 dose (80 μg)): statistically significant
decrease of cPLA2 activity ([4]; MC12 40 μg): 18%
decrease of cPLA2 activity ([4]; MC12 80 μg, p<0.05): 26%
decrease of cPLA2 activity ([4]; MC-12 5 mg/kg): 18%
decrease of cPLA2 activity ([4]; MC-12 25 mg/kg, p<0.05): 24%
TNF-α mRNA level in colon [5]: essentially normalized
IFN-γ mRNA level in colon [6]: below baseline
IL-10 mRNA level in colon [7]: below baseline
IL-6 mRNA level in colon [8]: below baseline
IL-1β mRNA level in colon [9]: essentially normalized
